Results: patent US4985560A, “Pyridazino(4,5-b)indolizines” (American Home Products Corporation, priority 1990, dated 1991)

Key:
[1] = system: Alzheimer's patients and healthy elderly patients; settings: due to side-effects, short duration of action, narrow active dose range; cited from earlier work
[2] = system: male Sprague-Dawley (Charles River) rats; test: Radial arm maze test, scopolamine impairment; assay type: in vivo, rat
From the text: The compound of Example 1 was also studied in the radial arm maze test where male Sprague-Dawley (Charles River) rats on a 23-hour food deprivation schedule were trained in an eight arm radial maze with all arms baited. Each session consisted of two maze exposures, with a time limit of 500 seconds for each exposure. After four correct choices (first exposure), each animal was removed from the maze for one hour then returned with only the remaining four arms baited (second exposure). Choice errors, consisting of delay errors (re-entry into any of the four arms chosen during the first exposure) and current errors (re-entry into any of the four arms chosen during the second exposure), as well as total errors were recorded. Durations for each exposure were also recorded. Statistical analysis were preformed using a One-Way Anova with Dunnetts T-Test comparisons.
All compounds were solubilized in distilled water.

memory loss = settings: rats; cited from earlier work
[3] = system: scopolamine-induced hyperactivity (muscarinic M1-mediated effect); test: Reduction of scopolamine-induced hyperactivity (locomotor activity chambers); assay type: in vivo, rat; settings: route not stated
Description: The motor activity chambers utilize infrared detectors to assess movement in 3 axes. Total activity measures (vertical+horizontal activity) were collected in 15 minute intervals for 1 hour post-injection. Total activity measures were cumulated across all time intervals for statistical analysis.

[4] = Table 2, arecoline 10.0 mg/kg i.p., scopolamine-impaired
[5] = first experiment (Table 2), versus scopolamine
[6] = first experiment (Table 2), versus vehicle

## COC(=O)C1=CCCN(C)C1 [Arecoline, arecoline]
[1]
  clinical efficacy: neither physostigmine nor arecoline have clinical efficacy
[2]; [4]
  Mean Errors, Current: 0.75
  Mean Errors, Delay: 1.50
  Mean Errors, Total: 2.25
  Mean Time, Current: 2.32 min
  Mean Time, Delay: 1.50 min
  Mean Time, Total: 4.06 min
[2]; [5]
  scopolamine impairment in delay, current and total errors: significant reduction in scopolamine impairment in delay, current and total errors
  time compared to scopolamine: no significant time reduction versus scopolamine
[2]; [6]
  delay, current and total errors versus vehicle: did not
  time measures versus vehicle: significant time increase versus vehicle
Memory loss
  reversal of muscarinic antagonist-induced memory deficit, rats: can be reversed
[3]
  dose active in scopolamine-induced hyperactivity test: about 5.4 mg/kg
